According to US7375190B2, “Recombinant protein and method of screening for agents that modulate polypeptide aggregation” (priority 2006, dated 2008):
Where a name gives a salt, the structure may show the parent alone.

Experiments:
[1] = test system: polyglutamine protein aggregation; conditions: cited from earlier work
neurodegeneration = conditions: in vivo; cited from earlier work
97Q-ADE2 [2] = assay: colony-color assay of yeast cells expressing 97Q-ADE2 on adenine low medium; type: cell-based
25Q-ADE2 = assay: colony-color assay of yeast cells expressing 25Q-ADE2 on adenine low medium; type: cell-based; conditions: guanidine hydrochloride 0, 1, 3 and 5 mM; 10-cm Petri dish; FIG. 3(A)
97Q-ADE2 [3] = assay: filter trap assay on cellulose acetate membrane for 97Q-ADE2 aggregates; type: cell-based, yeast
Method: Therefore, this unique physical characteristic of the aggregates could be detected biochemically using a filter trap assay in which only proteins with size more than 0.2 micrometers retain on a cellulose acetate membrane (Scherzinger et al., 1997, Cell 90, 549-558). In order to validate the colony-color phenotypes observed in the genetic experiments were caused by the formation of ADE2 protein aggregates, cell lysates were prepared and subjected to filter trap assays.
The experimental procedures for slot-blot assay were following: Nitrocellulose (NC) membrane was pre-wetted with TBS (20 mM Tris, 500 mM NaCl), then assembled into Bio-Dot apparatus (BIO-RAD) in which 3 filter papers (BIO-RAD) were on the bottom as a support and NC membrane was on the top. After assembly of the Bio-Dot apparatus, 200 μl TBS buffer was added into each loading well to rinse the membrane followed by the addition of diluted cell lysate (3 μl prepared cell lysate mixed with 197 μl TBS buffer). When the lysate has completely drained from the apparatus by gravity, 200 μl TBS buffer was loaded again to reduce residual proteins within the loading well. Following the step of TBS wash, 200 μl TTBS (20 mM Tris, 500 mM NaCl, and 0.05% Tween 20) was applied as washing buffer and the solution was sucked out by vacuum pump. The membrane was subjected to TTBS wash twice followed by removal of the membrane from the Bio-Dot apparatus and detection of trapped proteins by Western blotting. […] The signal for the immuno-blotting was detected by enhanced chemiluminescence (ECL) reagents. […]
In order to confirm the change of phenotype observed was caused by the alteration of protein solubility, the combination of filter trap and slot blot assays was applied for detecting the level of polyglutamine protein aggregates within these cells. […] Thus, the reduction of polyglutamine protein aggregation caused by Hsp104p inhibitor was tightly associated with the change of cellular phenotype and could be visibly detected by the colony color system.

[4] = test system: cells that did not express 97Q-ADE2; assay: colony-color control on glucose media, cells that did not express 97Q-ADE2, 48-well microplate; type: cell-based, yeast; conditions: 0, 1, 3 and 5 mM, FIG. 4 first row
Method: Plate preparation for colony-color assay was as following: 6.7 g of yeast nitrogen base lacking amino acids, 20 g of Bacto agar and 1.3 g of drop-out mix that contain amino acids supplement necessary for viable and selective growth of the transformed cells were added to 900 ml of H2O according to Burke et al. (Burke et al., Methods in Yeast Genetics, 2000 Edition, Gold Spring Harbor Laboratory Press, 171-175). Carbon source, either glucose or galactose, and filter-sterilized adenine were added after autoclaving to final concentrations of 2% and 4 mg/l, respectively. For preparation of media containing guanidine hydrochloride, the chemical reagent was added simultaneously with carbon source and adenine to final concentrations of […] as indicated. There were about 20 ml of medium in each 10 cm petri dish and 0.2 ml of medium in each well of 48-well microplate.
For the purpose of drug screening, small volume of medium for examining the colony color phenotype of cells has advantage in saving the amount of candidate compound tested. […] With glucose or galactose as carbon source, the transformed cells were grown on adenine low media containing guanidine hydrochloride at a final concentration of 0, 1, 3 and 5 mM as indicated. […]

Hsp104p = target: T1, Hsp104p (Saccharomyces cerevisiae, UniProt P31539); conditions: 3-5 mM; cited from earlier work
T1 construct: cellular Hsp104p is required for two similar types of protein aggregation in yeast cells; host or cells: yeast cells (endogenous Hsp104p)
T1 sequence (P31539 whole entry): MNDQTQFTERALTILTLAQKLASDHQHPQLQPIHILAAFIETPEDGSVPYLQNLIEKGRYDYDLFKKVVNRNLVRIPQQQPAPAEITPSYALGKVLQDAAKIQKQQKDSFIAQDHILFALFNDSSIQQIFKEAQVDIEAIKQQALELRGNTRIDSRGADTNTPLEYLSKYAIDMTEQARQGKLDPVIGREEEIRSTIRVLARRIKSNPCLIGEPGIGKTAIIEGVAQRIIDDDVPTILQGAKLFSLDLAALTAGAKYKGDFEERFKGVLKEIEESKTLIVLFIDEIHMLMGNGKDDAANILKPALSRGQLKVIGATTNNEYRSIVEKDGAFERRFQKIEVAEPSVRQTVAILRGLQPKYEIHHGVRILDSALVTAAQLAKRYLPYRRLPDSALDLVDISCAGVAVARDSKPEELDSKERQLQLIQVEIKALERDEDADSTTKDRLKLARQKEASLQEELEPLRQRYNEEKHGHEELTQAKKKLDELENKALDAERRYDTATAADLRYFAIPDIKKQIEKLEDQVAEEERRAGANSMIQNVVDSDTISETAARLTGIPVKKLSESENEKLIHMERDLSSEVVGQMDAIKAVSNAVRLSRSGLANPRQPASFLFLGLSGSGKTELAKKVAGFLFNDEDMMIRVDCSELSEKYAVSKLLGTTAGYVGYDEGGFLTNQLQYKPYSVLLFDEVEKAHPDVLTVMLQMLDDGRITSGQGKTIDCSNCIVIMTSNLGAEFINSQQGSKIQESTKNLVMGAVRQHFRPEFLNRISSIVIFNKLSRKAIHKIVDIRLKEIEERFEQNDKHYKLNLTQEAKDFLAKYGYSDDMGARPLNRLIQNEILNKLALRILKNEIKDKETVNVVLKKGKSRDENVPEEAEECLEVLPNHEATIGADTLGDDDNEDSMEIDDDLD

SMILES	polyglutamine protein aggregation [1]	neurodegeneration in an animal model (neurodegeneration)	cellular color of 97Q-ADE2 expressing cells (97Q-ADE2 [2]; 0, 1, 3 and 5 mM, 48-well microplate, galactose, FIG. 4 second row)	appearance of colony color, 97Q-ADE2 versus 25Q-ADE2 cells (97Q-ADE2 [2]; 5 mM, 10-cm Petri dish)	cellular color phenotype of cells expressing 97Q-ADE2 (97Q-ADE2 [2]; guanidine hydrochloride 0, 1, 3 and 5 mM, adenine low media, 10-cm Petri dish, FIG. 3(A))	colony color of cells expressing 25Q-ADE2 (25Q-ADE2)	97Q-ADE2 fusion protein trapped on cellulose acetate membrane (97Q-ADE2 [3]; 1 mM, FIG. 3(B) lane 3)	97Q-ADE2 fusion protein trapped on cellulose acetate membrane (97Q-ADE2 [3]; 3 mM, continuous treatment, FIG. 3(B) lane 4)	97Q-ADE2 fusion protein trapped on cellulose acetate membrane (97Q-ADE2 [3]; 5 mM, continuous treatment, FIG. 3(B) lane 5)	colony color of cells that did not express 97Q-ADE2 [4]	activity of Hsp104p (Hsp104p)
C[C@@H](N)[C@H]1CC[C@H](C(=O)Nc2ccncc2)CC1 [Y-27632]	diminished polyglutamine protein aggregation	reduced neurodegeneration									
N=C(N)N [guanidine hydrochloride]			changed their cellular colors from red to white	indistinguishable between cells expressing 25Q-ADE2 and 97Q-ADE2	changed from red to pink and white as a function of guanidine hydrochloride concentration	constantly showed colony color of white	significant amount of the fusion protein was trapped	little	no signal	the cellular phenotype remained the same	substantially reduces the activity of Hsp104p
